According to patent publication US9809623B2, “α4β7 peptide monomer and dimer antagonists” (Protagonist Therapeutics, Inc., priority 2014, dated 2017):
Numbered stars: 1 amine (or outer) side, 2 acyl side, 3 side chain; on linkers, the order of the positions; unused ones are H or OH. Bridge positions count the residues as written; N and C are the ends. Square brackets hold non-standard residues; d marks the D form. Peptide text beside a SMILES is read from it. I, II: the chains in the order shown. 2Nal = N[C@@H](Cc1ccc2ccccc2c1)C(=O)O; Diglycolyl = O=C(COCC(=O)[*:2])[*:1]; NMeR = CN[C@@H](CCCNC(=N)N)C(=O)O; NMeK = CN[C@@H](CCCCN)C(=O)O; Pen = CC(C)(S)[C@H](N)C(=O)O; dNMeK = CN[C@H](CCCCN)C(=O)O

Test: Intestinal Wash Assay
Type: in vitro ADME
Set-up: dose or concentration left out as unconfirmed
Settings: rat, rat intestinal wash fluid (small intestine); Table 4-C, t1/2
Protocol: Intestinal wash assay solution was prepared from rats fasted for at least 6 hours prior. The animals were euthanized and a midline incision was made from the point of the jaw to the pubis. The abdomen and chest were opened by making 2 incisions through the anterior chest wall on either side. Hemostats were used to clamp off both ends of the animal's stomach—where the esophagus meets the stomach and where the stomach meets the duodenum. A hemostat was also used to clamp 2-3 cm down the intestine from where the stomach meets the duodenum.
Intestinal wash assay solution was prepared by separating 20 cm of the small intestine from the body. Once separated 20 cm, the end was clamped with a hemostat and the section cut from the body, leaving the hemostats in place on the removed section. 1 mL of chilled saline was drawn up with a 1 mL syringe. One end of the intestine was held up and the clamp removed. Approximately 2-2.5 cm of the gavage needle was inserted into the intestine, and the saline was slowly injected. The fluid was massaged down the length of the intestine using gloved fingers. The gavage needle was removed and the clamp was replaced on the end of the intestine. The intestine was sat straight and a q-tip was run firmly up and down the length of the outside of the intestine approximately 3-6 times to mix the enzymes with the saline. One end of the intestine was held up and some of the fluid was carefully moved at the top down. The clamp was removed and that end of the intestine was set into a small weigh boat on ice. The other end of the intestine was carefully picked up and held vertically. Gloved fingers were gently run down it to squeeze the fluid into the container. The previous steps saline injection and fluid procurement steps were repeated twice using only 0.5 mL of chilled saline. The sample was pipetted from the weigh boat into a centrifuge tube and placed on ice. All intestinal wash samples were spun down in a cold centrifuge at 12,000×g for 10 minutes. The supernatant from the top of each centrifuged sample was pipetted into cryotubes, and kept on ice until use.
Intestinal wash assays were performed using intestinal wash assay solution prepared as described above. A sufficient amount of rat intestinal wash was thawed. For each sample, 200 uL of rat intestinal wash fluid was pipetted into 1.5 mL Eppendorf tubes (number of tubes for experiment=number of test peptides×N). The tubes were pre-incubated for about 10 minutes in a water bath at 37° C.
Peptide working solutions ([…]) were prepared by combining 2 μl of 10 mM DMSO stock with 128 μl 100 mM Tris pH 7.5.
Peptide quench solvent (50% ACN-50% MeOH-5% Formic Acid)+IS (5 ug/ml; 1 ul of 10 mg/mL IS per 2 mL quench solvent) was prepare and a quench plate prepared and placed on ice. 200 ul of quench solution was added to each well of the quench plate for T=0, 10, 20, 30, 60 and 180 min collection.
For each test sample and a positive control, 30 ul of peptide working solution was added to a tube of intestinal wash fluid. The tube was gently vortexed and 30 ul was immediately removed and quenched in T=0 well of quench plate (pipetted directly into the quench solution). This well was covered tightly to prevent evaporation. 30 ul aliquots were removed at T=10 min, T=20 min, T=30 min, T=60 min, and T=180 min, and quenched. When all time points were collected, the quench plate was centrifuged at 10,000 rpm for 10 minutes. 150 uL of each supernatant was transferred to a polypropylene 96-well collection plate. 300 ul Mobile Phase A was added to each collection, and LC/MS/MS analysis was performed to determine the amount or concentration of peptide remaining in each test sample and positive control.

SMILES	half-life [h]
CC(=O)N[C@H]1CSSC[C@@H](C(=O)NCC(=O)N[C@@H](CCC(=O)O)C(N)=O)NC(=O)[C@H](CC(C)C)NC(=O)[C@H]([C@@H](C)O)NC(=O)[C@H](CC(=O)O)NC(=O)[C@H](CO)NC(=O)[C@H](CCCNC(=N)N)N(C)C1=O [compound 198, Ac-C-N-Me-R-S-D-T-L-C-G-E-NH2] (Ac-C[NMeR]SDTLCGE-NH2; disulfide 1-7)	0.5
CC(=O)N[C@@H]1C(=O)N(C)[C@@H](CCCNC(=N)N)C(=O)N[C@@H](CO)C(=O)N[C@@H](CC(=O)O)C(=O)N[C@@H]([C@@H](C)O)C(=O)N[C@@H](CC(C)C)C(=O)N[C@H](C(=O)N[C@@H](Cc2ccc3ccccc3c2)C(=O)N[C@@H](CCC(=O)O)C(=O)N[C@H](CCCCNC(=O)COCC(=O)NCCCC[C@@H](NC(=O)[C@H](CCC(=O)O)NC(=O)[C@H](Cc2ccc3ccccc3c2)NC(=O)[C@H]2NC(=O)[C@H](CC(C)C)NC(=O)[C@H]([C@@H](C)O)NC(=O)[C@H](CC(=O)O)NC(=O)[C@H](CO)NC(=O)[C@H](CCCNC(=N)N)N(C)C(=O)[C@@H](NC(C)=O)C(C)(C)SSC2(C)C)C(N)=O)C(N)=O)C(C)(C)SSC1(C)C [compound 212, (Ac-Pen-N-Me-R-S-D-T-L-Pen-2-Nal-E-k-NH2)2-DIG] (I: Ac-[Pen][NMeR]SDTL[Pen][2Nal]E[dK]-NH2 / II: Ac-[Pen][NMeR]SDTL[Pen][2Nal]E[dK]-NH2; disulfide I:1-I:7, II:1-II:7 (inferred); linker I:10-II:10 via Diglycolyl (inferred))	1.63
CC(=O)N[C@@H]1C(=O)N(C)[C@@H](CCCNC(=N)N)C(=O)N[C@@H](CO)C(=O)N[C@@H](CC(=O)O)C(=O)N[C@@H]([C@@H](C)O)C(=O)N[C@@H](CC(C)C)C(=O)N[C@H](C(=O)N[C@@H](Cc2c[nH]c3ccccc23)C(=O)N[C@@H](CCC(=O)O)C(=O)N(C)[C@@H](CCCCNC(=O)COCC(=O)NCCCC[C@@H](C(N)=O)N(C)C(=O)[C@H](CCC(=O)O)NC(=O)[C@H](Cc2c[nH]c3ccccc23)NC(=O)[C@H]2NC(=O)[C@H](CC(C)C)NC(=O)[C@H]([C@@H](C)O)NC(=O)[C@H](CC(=O)O)NC(=O)[C@H](CO)NC(=O)[C@H](CCCNC(=N)N)N(C)C(=O)[C@@H](NC(C)=O)C(C)(C)SSC2(C)C)C(N)=O)C(C)(C)SSC1(C)C [compound 215, [Ac-Pen-(N-Me-Arg)-Ser-Asp-Thr-Leu-Pen-Trp-Glu-(N-Me-Lys)-NH2]2-DIG] (I: Ac-[Pen][NMeR]SDTL[Pen]WE[NMeK]-NH2 / II: Ac-[Pen][NMeR]SDTL[Pen]WE[NMeK]-NH2; disulfide I:1-I:7, II:1-II:7 (inferred); linker I:10-II:10 via Diglycolyl (inferred))	> 6
CC(=O)N[C@@H]1C(=O)N(C)[C@@H](CCCNC(=N)N)C(=O)N[C@@H](CO)C(=O)N[C@@H](CC(=O)O)C(=O)N[C@@H]([C@@H](C)O)C(=O)N[C@@H](CC(C)C)C(=O)N[C@H](C(=O)N[C@@H](Cc2c[nH]c3ccccc23)C(=O)N[C@H](CCC(=O)O)C(=O)N[C@H](CCCCNC(=O)COCC(=O)NCCCC[C@@H](NC(=O)[C@@H](CCC(=O)O)NC(=O)[C@H](Cc2c[nH]c3ccccc23)NC(=O)[C@H]2NC(=O)[C@H](CC(C)C)NC(=O)[C@H]([C@@H](C)O)NC(=O)[C@H](CC(=O)O)NC(=O)[C@H](CO)NC(=O)[C@H](CCCNC(=N)N)N(C)C(=O)[C@@H](NC(C)=O)C(C)(C)SSC2(C)C)C(N)=O)C(N)=O)C(C)(C)SSC1(C)C [compound 211, (Ac-Pen-N-Me-R-S-D-T-L-Pen-W-e-k-NH2)2-DIG] (I: Ac-[Pen][NMeR]SDTL[Pen]W[dE][dK]-NH2 / II: Ac-[Pen][NMeR]SDTL[Pen]W[dE][dK]-NH2; disulfide I:1-I:7, II:1-II:7 (inferred); linker I:10-II:10 via Diglycolyl (inferred))	2.98
CC(=O)N[C@@H]1C(=O)N(C)[C@@H](CCCNC(=N)N)C(=O)N[C@@H](CO)C(=O)N[C@@H](CC(=O)O)C(=O)N[C@@H]([C@@H](C)O)C(=O)N[C@@H](CC(C)C)C(=O)N[C@H](C(=O)N[C@@H](Cc2c[nH]c3ccccc23)C(=O)N[C@H](CCC(=O)O)C(=O)N[C@H](CCCCNC(=O)COCC(=O)NCCCC[C@@H](NC(=O)[C@@H](CCC(=O)O)NC(=O)[C@H](Cc2c[nH]c3ccccc23)NC(=O)[C@H]2NC(=O)[C@H](CC(C)C)NC(=O)[C@H]([C@@H](C)O)NC(=O)[C@H](CC(=O)O)NC(=O)[C@H](CO)NC(=O)[C@H](CCCNC(=N)N)N(C)C(=O)[C@@H](NC(C)=O)C(C)(C)SSC2(C)C)C(=O)O)C(=O)O)C(C)(C)SSC1(C)C [compound 216, (Ac-Pen-N-Me-R-S-D-T-L-Pen-W-e-k-OH)2-DIG] (I: Ac-[Pen][NMeR]SDTL[Pen]W[dE][dK]-OH / II: Ac-[Pen][NMeR]SDTL[Pen]W[dE][dK]-OH; disulfide I:1-I:7, II:1-II:7 (inferred); linker I:10-II:10 via Diglycolyl (inferred))	> 6
CC(=O)N[C@@H]1C(=O)N(C)[C@@H](CCCNC(=N)N)C(=O)N[C@@H](CO)C(=O)N[C@@H](CC(=O)O)C(=O)N[C@@H]([C@@H](C)O)C(=O)N[C@@H](CC(C)C)C(=O)N[C@H](C(=O)N[C@@H](Cc2c[nH]c3ccccc23)C(=O)N[C@@H](CCC(=O)O)C(=O)N(C)[C@H](CCCCNC(=O)COCC(=O)NCCCC[C@H](C(N)=O)N(C)C(=O)[C@H](CCC(=O)O)NC(=O)[C@H](Cc2c[nH]c3ccccc23)NC(=O)[C@H]2NC(=O)[C@H](CC(C)C)NC(=O)[C@H]([C@@H](C)O)NC(=O)[C@H](CC(=O)O)NC(=O)[C@H](CO)NC(=O)[C@H](CCCNC(=N)N)N(C)C(=O)[C@@H](NC(C)=O)C(C)(C)SSC2(C)C)C(N)=O)C(C)(C)SSC1(C)C [compound 214, [Ac-Pen-(N-Me-Arg)-Ser-Asp-Thr-Leu-Pen-Trp-Glu-(N-Me-D-Lys)-NH2]2-DIG] (I: Ac-[Pen][NMeR]SDTL[Pen]WE[dNMeK]-NH2 / II: Ac-[Pen][NMeR]SDTL[Pen]WE[dNMeK]-NH2; disulfide I:1-I:7, II:1-II:7 (inferred); linker I:10-II:10 via Diglycolyl (inferred))	> 6

Test: Cysteine/Cystine Redox Stability Assay
Type: physicochemical
Settings: Table 4-C; ORP where half of the oxidized peptide remains
Protocol: Peptides were diluted to 90 μM by adding 4.545 μl of a 10 mM peptide DMSO stock to 495.45 μl of 100 mM Tris-Cl, pH 7.5. Aliquots of […] were transferred to 8 wells down a column of a 96 well plate. 20 μl of 2.5 mM Cystine in 100 mM Tris-Cl, pH 7.5 was added to each well. Cysteine stock solutions in 100 mM Tris-Cl, pH 7.5 were prepared fresh at the following concentrations: 400 mM, 200 mM, 80 mM, 44 mM, 22 mM, 11 mM, 5.5 mM and blank. At time 0, 25 μl of each cysteine stock solution was added to the 55 μl of cystine/peptide solution, and the mixture was incubated at room temperature for 40 min. The samples were quenched by adding 20 μl of 5M acetic acid and analyzed by reverse phase HPLC. The fraction of oxidized peptide was calculated and plotted against the calculated oxidation reduction potential (ORP) as defined by the Nernst equation. The ORP where half of the oxidized peptide remains is shown below.

SMILES	Cys/CySS (mV)
CC(=O)N[C@@H]1C(=O)N(C)[C@@H](CCCNC(=N)N)C(=O)N[C@@H](CO)C(=O)N[C@@H](CC(=O)O)C(=O)N[C@@H]([C@@H](C)O)C(=O)N[C@@H](CC(C)C)C(=O)N[C@H](C(=O)N[C@@H](Cc2ccc3ccccc3c2)C(=O)N[C@@H](CCC(=O)O)C(=O)N[C@H](CCCCN)C(N)=O)C(C)(C)SSC1(C)C [compound 210, Ac-Pen-N-Me-R-S-D-T-L-Pen-2-Nal-E-k-NH2] (Ac-[Pen][NMeR]SDTL[Pen][2Nal]E[dK]-NH2; disulfide 1-7)	<−300
CC(=O)N[C@@H]1C(=O)N(C)[C@@H](CCCNC(=N)N)C(=O)N[C@@H](CO)C(=O)N[C@@H](CC(=O)O)C(=O)N[C@@H]([C@@H](C)O)C(=O)N[C@@H](CC(C)C)C(=O)N[C@H](C(=O)N[C@@H](Cc2c[nH]c3ccccc23)C(=O)N[C@H](CCCCN)C(N)=O)C(C)(C)SSC1(C)C [compound 208, Ac-Pen-N-Me-R-S-D-T-L-Pen-W-k-NH2] (Ac-[Pen][NMeR]SDTL[Pen]W[dK]-NH2; disulfide 1-7)	<−300
